Counter-ions that a name gives are not always drawn.
Biological target: T1, FAAH (Fatty Acid Amide Hydrolase) (Mus musculus, UniProt O08914)
T1 construct: The membrane homogenates are prepared at the time of use by homogenization of the tissues; from tissue; host or cells: mouse brain (minus the cerebellum), membrane homogenate
T1 sequence (O08914 1-579): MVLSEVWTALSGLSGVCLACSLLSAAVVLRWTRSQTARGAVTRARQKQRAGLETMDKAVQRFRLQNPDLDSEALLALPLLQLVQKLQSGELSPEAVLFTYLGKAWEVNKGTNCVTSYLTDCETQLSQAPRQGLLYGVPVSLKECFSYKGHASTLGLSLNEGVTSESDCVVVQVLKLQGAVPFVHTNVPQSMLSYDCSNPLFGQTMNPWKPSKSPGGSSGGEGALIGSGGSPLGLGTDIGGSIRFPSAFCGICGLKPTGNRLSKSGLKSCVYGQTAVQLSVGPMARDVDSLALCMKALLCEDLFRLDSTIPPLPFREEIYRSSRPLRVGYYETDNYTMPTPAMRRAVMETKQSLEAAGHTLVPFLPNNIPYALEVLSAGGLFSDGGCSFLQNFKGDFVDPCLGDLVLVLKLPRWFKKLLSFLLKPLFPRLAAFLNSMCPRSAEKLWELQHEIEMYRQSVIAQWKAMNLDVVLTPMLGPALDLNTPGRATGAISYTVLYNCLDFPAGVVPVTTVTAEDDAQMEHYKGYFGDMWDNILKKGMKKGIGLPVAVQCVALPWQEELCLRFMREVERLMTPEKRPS
Assay: Radioenzymatic test of FAAH inhibition: hydrolysis of anandamide [ethanolamine 1-3H] by mouse brain membrane homogenates
Assay type: biochemical
Details: mouse brain membrane homogenate; preincubation 20 min at 25° C.; anandamide 10 μM; read-out: CI50 (concentration which inhibits the control enzymatic activity of FAAH by 50%)
Protocol: The compounds of the invention form the subject of pharmacological trials which make it possible to determine their inhibitory effect on the enzyme FAAH (Fatty Acid Amide Hydrolase).
Thus, mouse brains (minus the cerebellum) are removed and stored at −80° C. The membrane homogenates are prepared at the time of use by homogenization of the tissues using a Precellys® device in the reaction buffer (Tris-HCl 10 mM pH=8, NaCl 150 mM and ethylenediaminetetraacetic acid (EDTA) 1 mM). The enzymatic reaction is carried out in 96-well MultiScreen filtration plates in a final volume of 70 μl. Reaction buffer supplemented with bovine serum albumin free from fatty acids (BSA, 1 mg/ml) is used for the enzymatic reaction, the dilution of the compounds and the dilution of the anandamide [ethanolamine 1-^3H]. Reaction buffer comprising the BSA (43 μl/well), the diluted test compounds at different concentrations (7 μl/well comprising 1% of DMSO) and the membrane preparation (10 μl/well, i.e. 200 μg of tissue per trial) are successively added to the wells. After preincubating the compounds with the enzyme at 25° C. for 20 minutes, the reaction is initiated by the addition of anandamide [ethanolamine 1-^3H] (specific activity of 15-20 Ci/mmol) diluted with cold anandamide (10 μl/well, final concentration of 10 μM, 0.01 μCi, per trial). After incubating at 25° C. for 20 minutes, the enzymatic reaction is halted by addition of a […] active charcoal solution prepared in a 1.5M NaCl and 0.5M HCl buffer (50 μl/well). The mixture is stirred for 10 minutes and then the aqueous phase comprising the [1-^3H]ethanolamine is recovered by filtration under vacuum and counted by liquid scintillation.

SMILES	IC50 [nM]
CCCCOc1cccc(OCCC2CCN(C(=O)OCc3cscn3)CC2)c1 [No. 90, Thiazol-4-ylmethyl 4-[2-(3-butoxyphenoxy)ethyl]-piperidine-1-carboxylate]	92
CCCCOc1cccc(OCCC2CCN(C(=O)OCc3nccs3)CC2)c1 [No. 60, Thiazol-2-ylmethyl 4-[2-(3-butoxyphenoxy)ethyl]-piperidine-1-carboxylate]	95
O=C(OCc1nccs1)N1CCC(CCOc2ccccc2-c2nc3ccccc3o2)CC1 [No. 39, Thiazol-2-ylmethyl 4-[2-(2-{benzoxazol-2-yl}-phenoxy)ethyl]piperidine-1-carboxylate]	13
O=C(OCc1nccs1)N1CCC(CCOc2ccc(Cc3ccccc3)cc2)CC1 [No. 49, Thiazol-2-ylmethyl 4-[2-(4-benzylphenoxy)ethyl]-piperidine-1-carboxylate]	19

System: not given
Assay: not given
Details: not given

SMILES	melting point [°C]
O=C(OCc1cscn1)N1CCC(CCOc2ccc3ccccc3c2)CC1 [No. 15, Thiazol-4-ylmethyl 4-[2-(naphth-2-yloxy)ethyl]-piperidine-1-carboxylate]	88 to 90
O=C(OCc1cscn1)N1CCC(COc2ccc3ccccc3c2)C1 (racemic) [No. 17, Thiazol-4-ylmethyl 3-(naphth-2-yloxymethyl)pyrrolidine-1-carboxylate]	90 to 92
O=C(OCc1cscn1)N1CCC(CCOc2ccc3cnccc3c2)CC1 (as salt: HCl) [No. 20, Thiazol-4-ylmethyl 4-[2-(isoquinolin-6-yloxy)ethyl]-piperidine-1-carboxylate]	150 to 160
N#Cc1ccc(OCCC2CCN(C(=O)OCc3cscn3)CC2)cc1 [No. 10, Thiazol-4-ylmethyl 4-[2-(4-cyanophenoxy)ethyl]-piperidine-1-carboxylate]	108 to 110
COc1ccc2cc(OCCC3CCN(C(=O)OCc4cscn4)CC3)ccc2c1 [No. 14, Thiazol-4-ylmethyl 4-[2-(6-methoxynaphth-2-yloxy)-ethyl]piperidine-1-carboxylate]	100 to 102
O=C(OCc1cscn1)N1CCC(COc2ccc(-c3ccc(F)cc3)cc2)C1 (racemic) [No. 22, Thiazol-4-ylmethyl 3-(4′-fluorobiphenyl-4-yloxymethyl)-pyrrolidine-1-carboxylate]	115 to 117
COc1ccc2ccc(OCCC3CCN(C(=O)OCc4cscn4)CC3)cc2c1 [No. 9, Thiazol-4-ylmethyl 4-[2-(7-methoxynaphth-2-yloxy)ethyl]-piperidine-1-carboxylate]	95 to 97
COc1ccc2cc(OCC3CCN(C(=O)OCc4cscn4)C3)ccc2c1 (racemic) [No. 11, Thiazol-4-ylmethyl (+/−)-3-(6-methoxynaphth-2-yloxymethyl)pyrrolidine-1-carboxylate]	128 to 130
O=C(OCc1cncs1)N1CCC(CCOc2ccc(F)cc2)CC1 [No. 6, Thiazol-5-ylmethyl 4-[2-(4-fluorophenoxy)ethyl]-piperidine-1-carboxylate]	96 to 98
O=C(OCc1cscn1)N1CCC(COc2ccc(Cl)c(Cl)c2)C1 (racemic) [No. 13, Thiazol-4-ylmethyl (+/−)-3-(3,4-dichlorophenoxymethyl)pyrrolidine-1-carboxylate]	78 to 80
O=C(OCc1cscn1)N1CCC(CCOc2ccc(-c3ccc(F)cc3)cc2)CC1 [No. 18, Thiazol-4-ylmethyl 4-[2-(4′-fluorobiphenyl-4-yloxy)-ethyl]piperidine-1-carboxylate]	62 to 64
O=C(OCc1cscn1)N1CCC(COc2ccc3c(Cl)cccc3c2)C1 (racemic) [No. 23, Thiazol-4-ylmethyl (+/−)-3-(5-chloronaphth-2-yloxymethyl)pyrrolidine-1-carboxylate]	89 to 91
O=C(OCc1cncs1)N1CCC(CCOc2ccc(Cl)cc2)CC1 [No. 7, Thiazol-5-ylmethyl 4-[2-(4-chlorophenoxy)ethyl]-piperidine-1-carboxylate]	93 to 97
O=C(OCc1cscn1)N1CCC(CCOc2ccc(Cl)cc2)CC1 [No. 5, Thiazol-4-ylmethyl 4-[2-(4-chlorophenoxy)ethyl]-piperidine-1-carboxylate]	53 to 55
O=C(OCc1cncs1)N1CCC(CCOc2ccc(C(F)(F)F)cc2)CC1 [No. 8, Thiazol-5-ylmethyl 4-[2-(4-{trifluoromethyl}phenoxy)-ethyl]piperidine-1-carboxylate]	47 to 49
O=C(OCc1cscn1)N1CCC(CCOc2ccc3ncccc3c2)CC1 (as salt: HCl) [No. 19, Thiazol-4-ylmethyl 4-[2-(quinolin-6-yloxy)ethyl]-piperidine-1-carboxylate]	140 to 150
O=C(OCc1cscn1)N1CCC(COc2ccc(Cl)c3ccccc23)C1 (racemic) [No. 16, Thiazol-4-ylmethyl (+/−)-3-(4-chloronaphth-1-yloxymethyl)pyrrolidine-1-carboxylate]	84 to 86

Continued, values first:

melting point [°C]	SMILES
54 to 56	O=C(OCc1cscn1)N1CCC(COc2cccc(OC(F)(F)F)c2)C1 (racemic) [No. 24, Thiazol-4-ylmethyl (+/−)-3-(3-{trifluoromethoxy}-phenoxymethyl)pyrrolidine-1-carboxylate]
81 to 83	O=C(OCc1nccs1)N1CCC(COc2ccc(-c3ccc(F)cc3)cc2)C1 (racemic) [No. 197, Thiazol-2-ylmethyl (+/−)-3-(4′-fluorobiphenyl-4-yloxymethyl)pyrrolidine-1-carboxylate]
193 to 195	COc1ccc2cc(OCC3CCN(C(=O)OCc4cc(C(N)=O)no4)C3)ccc2c1 (racemic) [No. 201, 3-Carbamoylisoxazol-5-ylmethyl (+/−)-3-(6-methoxynaphth-2-yloxymethyl)pyrrolidine-1-carboxylate]
121 to 123	O=C(OCc1cscn1)N1CCC(COc2ccc3ccncc3c2)C1 (racemic) [No. 29, Thiazol-4-ylmethyl (+/−)-3-(isoquinolin-7-yloxymethyl)pyrrolidine-1-carboxylate]
100 to 112	O=C(OCc1nccs1)N1CC[C@@H](COc2ccc3ccccc3c2)C1 (single isomer, unassigned) [No. 194]
60 to 62	O=C(OCc1cscn1)N1CCC(COc2ccc(Cl)c(C(F)(F)F)c2)C1 (racemic) [No. 30, Thiazol-4-ylmethyl (+/−)-3-(4-chloro-3-{trifluoromethyl}phenoxymethyl)pyrrolidine-1-carboxylate]
122 to 124	O=C(OCc1cscn1)N1CCC(COc2ccc3cnccc3c2)C1 (racemic) [No. 27, Thiazol-4-ylmethyl (+/−)-3-(isoquinolin-6-yloxymethyl)pyrrolidine-1-carboxylate]
106 to 108	NC(=O)c1cc(COC(=O)N2CCC(CCOc3ccc(F)cc3)CC2)on1 [No. 198, 3-Carbamoylisoxazol-5-ylmethyl 4-[2-(4-fluorophenoxy)ethyl]piperidine-1-carboxylate]
76 to 78	CC(C)(c1ccccc1)c1ccc(OCC2CCN(C(=O)OCc3cscn3)C2)cc1 (racemic) [No. 25, Thiazol-4-ylmethyl (+/−)-3-[4-(1-methyl-1-phenyl-ethyl)phenoxymethyl]pyrrolidine-1-carboxylate]
112 to 114	O=C(OCc1nccs1)N1CC[C@H](COc2ccc3ccccc3c2)C1 (single isomer, unassigned) [No. 195]
94 to 96	O=C(OCc1cscn1)N1CCC(COc2ccc3cccnc3c2)C1 (racemic) [No. 28, Thiazol-4-ylmethyl (+/−)-3-(quinolin-7-yloxymethyl)-pyrrolidine-1-carboxylate]
76 to 78	O=C(OCc1cscn1)N1CCC(COc2ccc3c(F)cccc3c2)C1 (racemic) [No. 31, Thiazol-4-ylmethyl (+/−)-3-(5-fluoronaphth-2-yloxymethyl)pyrrolidine-1-carboxylate]
